Assay results: patent US20150140015A1, “METHODS AND PHARMACEUTICAL COMPOSITIONS FOR THE TREATMENT OF PANCREATIC CANCER” (INSERM (Institut National de la Sante et de la Recherche …, priority 2013, published 2015)

Tests used:
Type in all cases: cell-based, human
[1] = test system: HPAF-II cells expressing recombinant OX1R; test: Quantification of apoptotic cells by annexin V-PE labeling in recombinant OX1R/HPAF-II cells; conditions: 1 μM orexin-A, 48 hr; recombinant HPAF-II expressing OX1R
Description: (§1) FIGS. 5A and B. Effect of orexin-A on apoptosis in OX1R expressing recombinant OX1R/HPAF-II cells. A, Parental HPAF-II and recombinant OX1R/HPAF-II cells were challenged with (black bars) or without (white bars) 1 μM orexin-A for 48 hr in the absence or presence of the SHP-2 protein tyrosine phosphatase inhibitor, NSC-87877 (50 μM). Apoptosis was measured by determination of annexin V-PE binding. Results are expressed as the percentage of apoptotic cells, and are the means±SE of three separate experiments. ***p<0.001; ns, non-significant; B, paraformaldehyde-fixed HPAF-II cells and recombinant OX1R/HPAF-II cells were challenged with or without (Basal) 1 μM orexin-A for 48 hr. Indirect immunostaining of activated caspase-3 in parental HPAF-II cells (left panels) and recombinant OX1R/HPAF-II cells (right panels) in the presence (bottom panels) or tabsence (top panels) of orexin-A is illustrated in B. […]
AsPC-1, SW 1990, HPAF-II and HPAF-II/hOX1R cells (seeded at 5×10^4 cells/well) were grown in 24-well plates for 24 hr under the culture conditions described above. […] Results are expressed as the percentage of apoptotic phycoerythrin-labelled Annexin V (Annexin V-PE) positive cells and are the means of 3 independent analyses.

parental HPAF-II cells = test: Activated caspase-3 immunostaining in parental HPAF-II cells; conditions: 1 μM orexin-A, 48 hr
Description: as §1, with “hr.” for “hr. Indirect immunostaining of activated caspase-3 in parental HPAF-II cells (left panels) and recombinant OX1R/HPAF-II cells (right panels) in the presence (bottom panels) or tabsence (top panels) of orexin-A is illustrated in B.”
(§2) After dewaxing, rehydrating tumor paraffin sections, and antigen retrieval by pretreatment with high temperature at pH 9, immunohistochemical procedures were carried out using an automated immunohistochemical stainer according to the manufacturer's guidelines (Bond-Max slide stainer, Menarini, Leica Microsystems). […] OX1R immunostaining was evaluated by two investigators (TV and AC) by calculating a score (0-300) obtained by multiplying the intensity (negative, 0; weak, 1; moderate, 2; and strong, 3) by the percentage of stained cells. The pattern of expression (cytoplasmic, membranous, and nuclear) was also recorded, and a mean score was calculated for each tumor. […]

AsPC-1 cells = test: Activated caspase-3 immunostaining in AsPC-1 cells; conditions: 1 μM orexin-A, 48 hr
Description: FIG. 4A-C. Effect of orexin-A on apoptosis in AsPC-1 cells. A, SHP-2 protein tyrosine phosphatase inhibitor, NSC-87877, blocks orexin-induced apoptosis. AsPC-1 cells were challenged with (black bars) or without (white bars) 1 μM orexin-A for 48 hr in the absence or presence of NSC-87877 (50 μM). Apoptosis was measured by determination of annexin V-PE binding, and results are expressed as the percentage of apoptotic cells; B and C: Indirect immunostaining of activated caspase-3 in AsPC-1 cells in the presence or absence of orexin-A. Paraformaldehyde-fixed AsPC-1 cells were challenged with (orexin-A) or without (basal) 1 μM orexin-A for 48 hr. Activated caspase-3 immunostaining is shown in B and scored in C. […]
as §2

orexin-A: 33 amino acid hypothalamic neuropeptide, OX1R agonist, SEQ ID NO:2; peptide from GL Biochemicals
annexin-V positive apoptotic cells [1]: 17.8%
caspase-3 activation (parental HPAF-II cells): no activation
cleavage and activation of caspase 3 (AsPC-1 cells): induced the cleavage and activation of caspase 3
